Patent publication US5688767A, “Treatment of endotoxin-associated disorders with cationic peptides” (priority 1996, dated 1997)

Assays:
[1] = molecular target: P. aeruginosa H103 LPS; experiment: Dansyl polymyxin (DPx) displacement from purified LPS; format: binding, Pseudomonas aeruginosa; settings: 2.5 μM DPx, 3 μg/ml LPS, 5 mM HEPES pH 7.2, average of at least three trials; for IC50: read-out: I50, Value in μM
Procedure: In this assay, DPx was incubated with LPS to saturate the binding sites and then, while polycationic compounds are titrated into the reaction, displacement of the DPx was monitored by the decrease in fluorescence (FIG. 9). P. aeruginosa LPS was isolated as previously described (Darveau, et al., J of Bacteriology, 155:831, 1983) Dansyl polymyxin was synthesized as described by Schindler, et al., B. Antimicrobial Agents and Chemo, 8:95, 1975.
The method of Moore, et al., (Antimicrobial Agents and Chemo., 29:496, 1987), was used to test how much DPx was needed to saturate the binding sties on LPS. Briefly, 5 μl samples of 100 μM DPx were titrated sequentially into 1 ml of 3 μg/ml of LPS until a maximum fluorescence was reached. The fluorescence was measured in a Perkin-Elmer 650-10S fluorescence spectrophotometer with an excitation wavelength of 340 nm and an emission wavelength of 485 nm using slit widths of 5 nm. […] For the binding inhibition assays (Moore, et al., Antimicrobial Agents and Chemo., 29:496, 1987), 2.5 μM DPx was added to 3 μg/ml of H103 LPS in 5 mM HEPES pH 7.2. The test compounds were added 5 μl at a time and the decrease in fluorescence due to displacement of the DPx from the LPS was recorded.
When the data was plotted as a double reciprocal plot (FIG. 10), the X-intercept provided a value that is equal to -1/I50.

[2] = test system: LPS-induced TNF in RAW 264.7 macrophage cells; experiment: Inhibition of LPS-mediated TNF induction in RAW 264.7 macrophages (L929 cytotoxicity readout); format: cell-based, murine; settings: for Unit of TNF induced / Unit of TNF induced (% of control): 100 ng purified E. coli 0111:B4 LPS, 20 μg of peptide or polymyxin B; for block of induction of TNF: 20 μg/ml, E. coli 0111:B4 and E. coli Bort LPS; for block of LPS induction of TNF: added up to 60 minutes after LPS
Procedure: The effect of CEME and CEMA peptides on LPS-induced TNF in macrophages was examined. RAW 264.7 macrophage cells were grown by seeding 10^6 cells into a 162 cm^2 cell culture flask and incubated at 37° C., 5% CO2 for 1 week. RAW cell media (Dulbecco's Modified Eagle Medium with Hepes buffer 450 ml; 2.4 mM L-glutamine 3 ml (400 mM); Pen/Strep 3 ml (10^4 U/ml of Pen, 1 mg/ml strep); and 10% heat inactivated fetal bovine serum (FBS) 50 ml) was then completely removed from flasks. 10 mls of cell dissociation solution (Sigma) was added to each flask and incubated at 37° C. for 10 minutes. Cells were removed from flasks, diluted in RAW cell media and centrifuged for 6 minutes. The cell pellet was resuspended in 5 ml of media/flask used. […] cell suspension was removed and added to 400 μl of trypan blue and cells were counted using a hemocytometer. The cell suspension was diluted to 1×10^6cells/ml and 1 ml of suspension was added per well of a 24 well plate. The 24 well plates were incubated at 37° C., 5% CO2 overnight for use in the assay.
After an overnight incubation, the media was aspirated from all the wells. 100 μl of Lipopolysaccharide (LPS) was added at 100 ng/100 μl. CEME or CEMA was added at the desired concentration/100 μl to specified wells. […] The plates were then incubated for six hours at 37° C., 5% CO2. The supernatant was then removed from the wells and stored overnight at 4° C. For those wells in which whole bacteria were added directly to the wells, the supernatant was centrifuged in 0.2 μm filter eppendorf tubes for 5 minutes.
The supernatants were then used in cell cytotoxic L929 assay. The samples were transferred to 96 well plates. 50 μl of TNF media was added to all the wells in all the plates except to those wells in the first row. 10 μl of murine TNF standard (20 ng/ml) and 90 μl of TNF media was added in duplicate to the plate and diluted 1:2 down the plate to the second to last row. Test samples (75 μl), comprising of the supernatants from the RAW cell assays, were added to separate rows in duplicate and diluted 1:3 to the second to last rows.
TNF-sensitive L929 mouse fibroblast cells were grown by seeding 10^6 cells into a 162 cm^2 cell culture flask and left to grow for 1 week. L929 cells were removed from the flask with 10 mls of trypsin-EDTA/flask and incubated 3-5 minutes. Cell suspension was diluted and centrifuged for 6 minutes. The pellet was resuspended in 5 mls of fresh L929 media/flask and counted (same as RAW cells). Cell suspension was diluted to 10^6 cells/ml. 100 μl was used to inoculate each well of the 96 well plates with the supernatants. (L929 Growth Media was the same as RAW cell media except instead of FBS, 50 mls of 10% heat inactivated horse serum was utilized; TNF Assay Media was the same as RAW cell media except 4 μg/ml Actinomycin D was added.)
The plates were incubated at 37° C. at 5% CO2 for 2 days. The media was then aspirated and replaced with 100 μl of the dye MTT (0.5 mg/ml) in modified Eagle Medium without phenol red. The plates were then incubated at 37° C. at 5% CO2 for 3 hours. The dye was then removed and replaced with 100 μl of absolute ethanol. The plates were left at room temperature for 10-15 minutes to dissolve the formazan dye crystals.
The plates were read at 570 nm in a ELISA plate reader with 690 nm reference filter. One unit of TNF activity is defined as the amount required to kill 50% of the L929 cells. The TNF level in Units per ml therefore was the reciprocal of the dilution which led to a 50% killing of L929 cells. […]
The murine cell line RAW 264.7 was obtained from ATCC, (Rockville, Md.), and maintained and passaged as described previously (Kelly, et al., supra). TNF induction experiments with LPS were performed as described by Kelly, et al. (supra) Briefly, Dulbecco's modified Eagle medium was aspirated from RAW 264.7 cell grown overnight in 24 well tissue culture plates after seeding with 10^6 cell per ml per well and replaced with fresh medium. […]

Row | Molecule | I50, Value in μg/ml [1] [µg/mL] | IC50 [1] [µM] | concentration of peptide that efficiently reduces LPS-induced TNF ([2]; 100 ng of E. coli 0111:B4 or E. coli Bort LPS, 6 hour) [µg/mL] | Unit of TNF induced [2] [units/ml] | Unit of TNF induced (% of control) [2] [%] | reduction of TNF induction ([2]; 2 μg/ml of peptide, E. coli 0111:B4 LPS 100 ng/ml) | block of induction of TNF [2] | blockage of TNF induction, in words ([2]; 20-50 μg/ml of peptides, E. coli 0111:B4 LPS 100 ng/ml) | TNF produced by peptide alone ([2]; CEMA (20 μg) alone, no LPS) [units/ml] | block of LPS induction of TNF [2] [%]
1 | CC[C@H](C)[C@H](NC(=O)CNC(=O)[C@@H](NC(=O)[C@H](CCCCN)NC(=O)[C@H](CCCCN)NC(=O)[C@H](Cc1ccccc1)NC(=O)[C@H](CC(C)C)NC(=O)[C@H](CCCCN)NC(=O)[C@H](Cc1c[nH]c2ccccc12)NC(=O)[C@@H](N)CCCCN)[C@@H](C)CC)C(=O)NCC(=O)N[C@@H](C)C(=O)N[C@H](C(=O)N[C@@H](CC(C)C)C(=O)N[C@@H](CCCCN)C(=O)N[C@H](C(=O)N[C@@H](CC(C)C)C(=O)N[C@H](C(=O)N[C@H](C(=O)NCC(=O)N[C@@H](CC(C)C)C(=O)N1CCC[C@H]1C(=O)N[C@@H](C)C(=O)N[C@@H](CC(C)C)C(=O)N[C@@H](CCCCN)C(=O)N[C@@H](CC(C)C)C(=O)N[C@H](C(=O)N[C@@H](CCCCN)C(=O)O)[C@@H](C)O)[C@@H](C)O)[C@@H](C)O)C(C)C)C(C)C [CEMA] | 4.12 ± 0.36 | 1.32 ± 0.117 | ≤ 5 | 566 ± 69 | 5.8 | more than 50% | approximately 100% | almost complete blockage | 50 ± 3 | 99
2 | polymyxin B | 2.97 ± 0.07 | 1.51 ± 0.04 | – | 573 ± 4 | 5.8 | – | approximately 100% | – | – | 81
